For one assay, the system named is HIRA-H3.3 complex. Nature of the assay: immunoprecipitation using HIRA antibody. The assay is classed as cell-based. The conditions noted are these: after Poly I:C treatment. From the text:
The histone variant h3.3 is a replacement for its canonical form of h3.1 and h3.2 in the nucleosome. Its deposition is usually associated with transcription activation and enhanced DNA accessibility. The complex that is responsible for h3.3 deposition is called HIRA complex which consists of HIRA. UBN, and cabin as the histone chaperone proteins. The HIRA O-GlcNAcylation is known to be critical for its function in H3.3 deposition. During the vascular recovery in the WT mice, the level of HIRA complex subunits, including ASFIA. HIRA. UBN, as well as the H3.3 deposition are increased (FIG. 22A). The HIRA-H3.3 pathway in the fibroblast progeny cells is activated, especially in the limbs recovering from ischemia 3- and 7-days post-surgery compared with the non-YFP+ cells (FIG. 22B). […] An in vitro system to test whether the HIRA-H3.3 pathway is activated during transdifferentiation was used.

In another assay the test system is O-GlcNAcylated proteins. Briefly: Click-it O-GlcNAc enzymatic labeling and detection assay. The following applies: 3 days vs vehicle, nuclear, cytoplasmic, whole-cell lysates. Type of assay: cell-based. As to the method: (§1) Cellular O-GlcNAcylation is elevated during transdifferentiation. […] TLR3 activation increases DNA accessibility and facilitates transdifferentiation. Other forms of inflammatory activation also increase DNA accessibility (as with RIG1 activation). […] To determine if the increase in UDP-GlcNAc is associated with an increase in O-GlcNAcylation, cells were treated with PolyI:C or vehicle for 3 days, then the O-GlcNAcylated proteins in the nuclear (N), cytoplasmic (C), or whole-cell (W) lysates were enzymatically labeled with azido-modified galactose (GalNAz), which were further detected by click-it chemistry using a biotinylated alkyne and Western.
To determine if the increase in UDP-GlcNAc is associated with an increase in O-GlcNAcylation, cells were treated with Poly I:C or vehicle for 3 days, then the O-GlcNAcylated proteins in the nuclear (N), cytoplasmic (C), or whole-cell (W) lysates were enzymatically labeled with azido-modified galactose (GalNAz), which were further detected by click-it chemistry using a biotinylated alkyne and Western.

The next assay has as its system accessible chromatin. Briefly: ATAC seq chromatin accessibility in fibroblasts. Type of assay: cell-based. The text has this:
Chromatin accessibility mapping is a powerful approach to identify sites of open chromatin (i.e. to infer sites of active transcription). In ATAC-seq, a Tn5 transposase inserts sequencing adapters into accessible DNA (‘tagmentation’). […] In the right panel, exposure of the fibroblasts to polyIC increases the average length (KB) of open chromatin.
Identify the role of O-GlcNAcylation in DNA accessibility. […] However, it is unknown if this occurs during transdifferentiation of fibroblasts to iECs. […] To test if O-GlcNAcylation controls this process.

The next assay deals with BJ fibroblasts. The conditions noted are these: PolyI:C alone, without endothelial growth factors; cited from earlier work.
Another assay deals with MEFs. The conditions noted are these: Chanda et al. 2019; cited from earlier work.
The next assay has as its system H3.3 deposition. Briefly: H3.3-SNAP tagging, quench-chase-pulse TMR-Star labeling. Type of assay: cell-based. The conditions noted are these: vs control. The text has this:
To identify the role of O-GlcNAcylation of histone variant h3.3 chaperone protein, HIRA, on transdifferentiation. The effects of O-GlcNAcylation on proteins that may be involved in the epigenetic regulation of transdifferentiation can be assessed. Nucleosome turnover is known to be tightly interrelated with DNA accessibility, and histone variant h3.3 is a hallmark of regulatory regions in the mammalian genome and is required to establish open chromatins. HIRA is the chaperone for h3.3, it forms a complex with other subunits, including ASF1. UBN, and CABIN, and is responsible for h3.3 deposition on the chromatin. OGT interacts with and O-GlcNAcylates HIRA, both of which are critical for the formation of the HIRA-h3.3 complex and h3.3 deposition and its dependent gene activation. […] The role of HIRA in transdifferentiation with fibroblasts that have HIRA knocked down or overexpressed can be determined. […] Thereafter, the de novo deposited SNAP-h3.3 will be pulse-labeled with the TMR-Star, which is a readily detectable and quantifiable red-fluorescent substrate. […]
To test whether innate immune activation enhances the H3.3 deposition in the chromatin, the H3.3-SNAP tagging system was generated where the newly synthesized H3.3 will be detected by fluorescent TMR-Star labeling with quench-chase-pulse strategy.

In another assay the test system is UDP-GlcNAc. Nature of the assay: LC-MS-based metabolomic analysis of fibroblasts undergoing transdifferentiation. The assay is classed as cell-based, human. The following applies: 30 ng/ml Poly I:C with induction medium, 0, 1, 3 days. The protocol:
as §1
To profile the global metabolic changes during transdifferentiation, untargeted metabolomics with BJ human fibroblast cells undergoing transdifferentiation protocol was performed and treated with 30 ng/ml Poly I:C with the induction medium for 0, 1, and 3 days. Over 100 metabolites were identified from the LC-MS-based metabolomic analysis. […] UDP-GlcNAc is the substrate for O-GlcNAcylation and is the end-product of the hexosamine biosynthesis pathway (HBP).

Entries after “also recorded” stand apart in the source; their conditions may differ. Like-named read-outs stand apart in the source and are kept apart here.

On to “Polyinosinic:polycytidylic acid [PolyI:C]”, for which the “HIRA interaction with UBN and H3.3” value with HIRA-H3.3 complex is given as “enhanced”. In addition, the O-GlcNAcylation entry with O-GlcNAcylated proteins is “elevation primarily occurs in nuclear proteins; also recorded: augmentation”; with O-GlcNAcylated proteins (listed as Poly I:C), “elevation”. The “chromatin accessibility (open chromatin around TSS)” value in the assay on accessible chromatin was “more accessible chromatin regions”; in the assay on accessible chromatin (listed as polyIC), “increases”. For the same substance, the “transdifferentiation of fibroblasts to endothelial cells” value in the assay on BJ fibroblasts is listed as “does not occur”. The DNA accessibility entry in the assay on MEFs is “enhances”. In addition, the H3.3 deposition result in the assay on H3.3 deposition is given as “enhances”. The results for the UDP-GlcNAc level entry in the assay with UDP-GlcNAc and in the assay with UDP-GlcNAc (listed as Poly I:C) were “highly elevated; also recorded: up-regulated” and “consistently increases”, respectively.
